{"source": "patent US11214564B2", "about": "“Compounds with thymine skeleton for use in medicine” (TECHNISCHE UNIVERSITÄT DRESDEN, priority 2019, dated 2022)"}
{"target": "HSP27 (Homo sapiens, UniProt P04792)", "sequence (P04792 whole entry)": "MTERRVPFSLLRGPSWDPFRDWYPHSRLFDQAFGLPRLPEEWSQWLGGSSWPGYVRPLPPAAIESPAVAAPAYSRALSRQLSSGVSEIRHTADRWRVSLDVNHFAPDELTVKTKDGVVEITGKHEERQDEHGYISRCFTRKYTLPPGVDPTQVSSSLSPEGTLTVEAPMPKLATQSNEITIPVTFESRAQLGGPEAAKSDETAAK", "experiment": "Aggregation assay: HSP27 chaperone activity on heat-induced aggregation of citrate synthase", "assay_type": "biochemical", "conditions": "compound 10 μM; 1.44 μM CS, 481 nM HSP27, 43° C., 500 nm", "description": "To test how small molecules affect the chaperone activity of HSP27, misfolding and aggregation of citrate synthase (CS), a well-known in vitro client protein of HSP27, was measured. Citrate synthase misfolds and aggregates when exposed to heat shock at 43° C. This heat denaturation is prevented or delayed in the presence of HSP27 (CS+HSP27) (Jakob et al. (1993)). […] The samples were incubated at 43° C. and the aggregation behavior of CS was monitored in a spectrometer (PerkinElmer LS55) at a wavelength of 500 nm. Substances inhibiting HSP27's chaperone activity lead to continued denaturation of the client protein and its aggregation in solution. This inhibition correlates with the strength of the interaction between HSP27 and the test substance, which is related to its binding efficiency.\nIn the reference experiment BVDU (CS+HSP27+BVDU) was tested at a concentration of 750 μM as previously described (Heinrich et al. (2016)).\nThe compounds according to the invention were tested at a concentration of 10 μM."}
{"smiles": "COc1ccc(-c2cccc(CC(=O)Nc3ccc(-n4cc(C)c(=O)[nH]c4=O)cc3)c2)cc1Cl", "note": "[Compound 1, 2-(3′-Chloro-4′-methoxy-[1,1′-biphenyl]-3-yl)-N-(4-(5-methyl-2,4-dioxo-3,4-dihydropyrimidin-1(2H)-yl)phenyl)acetamide]", "aggregation value related to the value from reference experiment (CS + HSP27 + BVDU), which was set at 1.0": 1.76}
{"smiles": "Cc1cn(-c2ccc(NC(=O)Cc3cccc(-c4cccc(Cl)c4)c3)cc2)c(=O)[nH]c1=O", "note": "[Compound 2, 2-(3′-chloro-[1,1′-biphenyl]-3-yl)-N-(4-(5-methyl-2,4-dioxo-3,4-dihydro-pyrimidin-1(2H)-yl)phenyl) acetamide]", "aggregation value related to the value from reference experiment (CS + HSP27 + BVDU), which was set at 1.0": 1.55}
{"smiles": "Cc1cn(-c2ccc(NC(=O)Cc3cccc(-c4ccc(Cl)c(Cl)c4)c3)cc2)c(=O)[nH]c1=O", "note": "[Compound 3, 2-(3′,4′-dichloro-[1,1′-biphenyl]-3-yl)-N-(4-(5-methyl-2,4-dioxo-3,4-dihydro-pyrimidin-1(2H)-yl)phenyl) acetamide]", "aggregation value related to the value from reference experiment (CS + HSP27 + BVDU), which was set at 1.0": 1.44}
{"smiles": "Cc1ccc(-c2cccc(CC(=O)Nc3ccc(-n4cc(C)c(=O)[nH]c4=O)cc3)c2)cc1Cl", "note": "[Compound 6, 2-(3′-chloro-4′-methyl-[1,1′-biphenyl]-3-yl)-N-(4-(5-methyl-2,4-dioxo-3,4-dihydropyrimidin-1(2H)-yl)phenyl) acetamide]", "aggregation value related to the value from reference experiment (CS + HSP27 + BVDU), which was set at 1.0": 1.38}
{"smiles": "Cc1cn(-c2ccc(NC(=O)Cc3cccc(-c4ccc(Cl)cc4Cl)c3)cc2)c(=O)[nH]c1=O", "note": "[Compound 7, 2-(2′,4′-dichloro-[1,1′-biphenyl]-3-yl)-N-(4-(5-methyl-2,4-dioxo-3,4-dihydro-pyrimidin-1(2H)-yl)phenyl) acetamide]", "aggregation value related to the value from reference experiment (CS + HSP27 + BVDU), which was set at 1.0": 1.35}
{"smiles": "CC(C)Oc1ccc(-c2cccc(CC(=O)Nc3ccc(-n4ccc(=O)[nH]c4=O)cc3)c2)cc1Cl", "note": "[Compound 8, 2-(3′-chloro-4′-isopropoxy-[1,1′-biphenyl]-3-yl)-N-(4-(2,4-dioxo-3,4-dihydro-pyrimidin-1(2H)-yl)phenyl) acetamide]", "aggregation value related to the value from reference experiment (CS + HSP27 + BVDU), which was set at 1.0": 1.34}
{"smiles": "Cc1cn(-c2ccc(NC(=O)Cc3cccc(-c4cccc(C(F)(F)F)c4)c3)cc2)c(=O)[nH]c1=O", "note": "[Compound 9, N-(4-(5-methyl-2,4-dioxo-3,4-dihydro-pyrimidin-1(2H)-yl)phenyl)-2-(3′-(trifluoromethyl)-[1,1′-biphenyl]-3-yl)acetamide]", "aggregation value related to the value from reference experiment (CS + HSP27 + BVDU), which was set at 1.0": 1.3}
{"smiles": "Cc1ccc(-c2cccc(CC(=O)Nc3ccc(-n4ccc(=O)[nH]c4=O)cc3C)c2)cc1Cl", "note": "[Compound 10, 2-(3′-chloro-4′-methyl-[1,1′-biphenyl]-3-yl)-N-(4-(2,4-dioxo-3,4-dihydro-pyrimidin-1(2H)-yl)-2-methyl-phenyl)acetamide]", "aggregation value related to the value from reference experiment (CS + HSP27 + BVDU), which was set at 1.0": 1.3}
{"smiles": "Cc1cn(-c2ccc(NC(=O)Cc3cccc(-c4cccc(OC(F)(F)F)c4)c3)cc2)c(=O)[nH]c1=O", "note": "[Compound 11, N-(4-(5-methyl-2,4-dioxo-3,4-dihydro-pyrimidin-1(2H)-yl)phenyl)-2-(3′-(trifluoro-methoxy)-[1,1′-biphenyl]-3-yl) acetamide]", "aggregation value related to the value from reference experiment (CS + HSP27 + BVDU), which was set at 1.0": 1.28}
{"smiles": "COc1ccc(-c2cccc(CC(=O)Nc3ccc(-n4ccc(=O)[nH]c4=O)c(Cl)c3)c2)cc1Cl", "note": "[Compound 13, 2-(3′-chloro-4′-methoxy-[1,1′-biphenyl]-3-yl)-N-(3-chloro-4-(2,4-dioxo-3,4-dihydro-pyrimidin-1(2H)-yl)phenyl) acetamide]", "aggregation value related to the value from reference experiment (CS + HSP27 + BVDU), which was set at 1.0": 1.21}
{"smiles": "COc1ccc(-c2cccc(CC(=O)Nc3ccc(-n4ccc(=O)[nH]c4=O)cc3C)c2)cc1Cl", "note": "[Compound 14, 2-(3′-chloro-4′-methoxy-[1,1′-biphenyl]-3-yl)-N-(4-(2,4-dioxo-3,4-dihydro-pyrimidin-1(2H)-yl)-2-methyl-phenyl)acetamide]", "aggregation value related to the value from reference experiment (CS + HSP27 + BVDU), which was set at 1.0": 1.2}
{"smiles": "Cc1cn(-c2ccc(NC(=O)Cc3cccc(-c4ccc(Cl)cc4)c3)cc2)c(=O)[nH]c1=O", "note": "[Compound 15, 2-(4′-chloro-[1,1′-biphenyl]-3-yl)-N-(4-(5-methyl-2,4-dioxo-3,4-dihydropyrimidin-1(2H)-yl)phenyl) acetamide]", "aggregation value related to the value from reference experiment (CS + HSP27 + BVDU), which was set at 1.0": 1.11}
{"smiles": "O=C(Cc1cccc(-c2ccc(Cl)cc2)c1)Nc1ccc(-n2cc(F)c(=O)[nH]c2=O)cc1", "note": "[Compound 16, 2-(4′-chloro-[1,1′-biphenyl]-3-yl)-N-(4-(5-fluoro-2,4-dioxo-3,4-dihydro-pyrimidin-1(2H)-yl)phenyl) acetamide]", "aggregation value related to the value from reference experiment (CS + HSP27 + BVDU), which was set at 1.0": 1.04}
{"smiles": "O=C(Cc1cccc(-c2cccc(OC(F)(F)F)c2)c1)Nc1ccc(-n2cc(Cl)c(=O)[nH]c2=O)cc1", "note": "[Compound 17, N-(4-(5-chloro-2,4-dioxo-3,4-dihydro-pyrimidin-1(2H)-yl)phenyl)-2-(3′-(trifluoro-methoxy)-[1,1′-biphenyl]-3-yl) acetamide]", "aggregation value related to the value from reference experiment (CS + HSP27 + BVDU), which was set at 1.0": 1.01}
{"smiles": "Cc1cc(-n2ccc(=O)[nH]c2=O)ccc1NC(=O)Cc1cccc(-c2ccc(Cl)c(Cl)c2)c1", "note": "[Compound 18, 2-(3′,4′-dichloro-[1,1′-biphenyl]-3-yl)-N-(4-(2,4-dioxo-3,4-dihydro-pyrimidin-1(2H)-yl)-2-methyl-phenyl)acetamide]", "aggregation value related to the value from reference experiment (CS + HSP27 + BVDU), which was set at 1.0": 1}
{"smiles": "O=C(Cc1cccc(-c2cccc(OC(F)(F)F)c2)c1)Nc1ccc(-n2ccc(=O)[nH]c2=O)c(Cl)c1", "note": "[Compound 19, N-(3-chloro-4-(2,4-dioxo-3,4-dihydro-pyrimidin-1(2H)-yl)phenyl)-2-(3′-(trifluoro-methoxy)-[1,1′-biphenyl]-3-yl) acetamide]", "aggregation value related to the value from reference experiment (CS + HSP27 + BVDU), which was set at 1.0": 0.97}
{"smiles": "O=C(Cc1cccc(-c2ccc(Cl)cc2Cl)c1)Nc1ccc(-n2cc(F)c(=O)[nH]c2=O)cc1", "note": "[Compound 20, 2-(2′,4′-dichloro-[1,1′-biphenyl]-3-yl)-N-(4-(5-fluoro-2,4-dioxo-3,4-dihydro-pyrimidin-1(2H)-yl)phenyl) acetamide]", "aggregation value related to the value from reference experiment (CS + HSP27 + BVDU), which was set at 1.0": 0.96}
{"smiles": "O=C(Cc1cccc(-c2ccc(Cl)c(Cl)c2)c1)Nc1ccc(-n2ccc(=O)[nH]c2=O)c(Cl)c1", "note": "[Compound 21, N-(3-chloro-4-(2,4-dioxo-3,4-dihydro-pyrimidin-1(2H)-yl)phenyl)-2-(3′,4′-dichloro-[1,1′-biphenyl]-3-yl)acetamide]", "aggregation value related to the value from reference experiment (CS + HSP27 + BVDU), which was set at 1.0": 0.94}
{"smiles": "COc1cccc(-c2cccc(CC(=O)Nc3ccc(-n4cc(C)c(=O)[nH]c4=O)cc3)c2)c1", "note": "[Compound 22, 2-(3′-methoxy-[1,1′-biphenyl]-3-yl)-N-(4-(5-methyl-2,4-dioxo-3,4-dihydro-pyrimidin-1(2H)-yl)phenyl) acetamide]", "aggregation value related to the value from reference experiment (CS + HSP27 + BVDU), which was set at 1.0": 0.91}
{"smiles": "Cc1cn(-c2ccc(NC(=O)Cc3cccc(-c4ccc(OC(C)C)c(Cl)c4)c3)cc2)c(=O)[nH]c1=O", "note": "[Compound 23, 2-(3′-chloro-4′-isopropoxy-[1,1′-biphenyl]-3-yl)-N-(4-(5-methyl-2,4-dioxo-3,4-dihydropyrimidin-1(2H)-yl)phenyl) acetamide]", "aggregation value related to the value from reference experiment (CS + HSP27 + BVDU), which was set at 1.0": 1.33}
{"smiles": "O=C(Cc1cccc(-c2ccc(Cl)cc2)c1)Nc1ccc(-n2ccc(=O)[nH]c2=O)cc1", "note": "[Compound 24, 2-(4′-chloro-[1,1′-biphenyl]-3-yl)-N-(4-(2,4-dioxo-3,4-dihydro-pyrimidin-1(2H)-yl)phenyl) acetamide]", "aggregation value related to the value from reference experiment (CS + HSP27 + BVDU), which was set at 1.0": 0.88}
{"smiles": "COc1ccc(-c2cccc(CC(=O)Nc3ccc(-n4ccc(=O)[nH]c4=O)cc3F)c2)cc1Cl", "note": "[Compound 25, 2-(3′-chloro-4′-methoxy-[1,1′-biphenyl]-3-yl)-N-(4-(2,4-dioxo-3,4-dihydro-pyrimidin-1(2H)-yl)-2-fluoro-phenyl)acetamide]", "aggregation value related to the value from reference experiment (CS + HSP27 + BVDU), which was set at 1.0": 0.88}
{"smiles": "O=C(Cc1cccc(-c2cccc(Cl)c2)c1)Nc1ccc(-n2ccc(=O)[nH]c2=O)cc1", "note": "[Compound 26, 2-(3′-chloro-[1,1′-biphenyl]-3-yl)-N-(4-(2,4-dioxo-3,4-dihydro-pyrimidin-1(2H)-yl)phenyl) acetamide]", "aggregation value related to the value from reference experiment (CS + HSP27 + BVDU), which was set at 1.0": 0.85}
{"smiles": "COc1ccc(-c2cccc(CC(=O)Nc3ccc(-n4ccc(=O)[nH]c4=O)cc3)c2)cc1Cl", "note": "[Compound 27, 2-(3′-chloro-4′-methoxy-[1,1′-biphenyl]-3-yl)-N-(4-(2,4-dioxo-3,4-dihydro-pyrimidin-1(2H)-yl)phenyl) acetamide]", "aggregation value related to the value from reference experiment (CS + HSP27 + BVDU), which was set at 1.0": 0.83}
{"smiles": "O=C(Cc1cccc(-c2cccc(OC(F)(F)F)c2)c1)Nc1ccc(-n2ccc(=O)[nH]c2=O)cc1F", "note": "[Compound 28, N-(4-(2,4-dioxo-3,4-dihydro-pyrimidin-1(2H)-yl)-2-fluoro-phenyl)-2-(3′-(trifluoro-methoxy)-[1,1′-biphenyl]-3-yl) acetamide]", "aggregation value related to the value from reference experiment (CS + HSP27 + BVDU), which was set at 1.0": 0.82}
{"smiles": "Cc1ccc(-c2cccc(CC(=O)Nc3ccc(-n4ccc(=O)[nH]c4=O)cc3)c2)cc1Cl", "note": "[Compound 29, 2-(3′-chloro-4′-methyl-[1,1′-biphenyl]-3-yl)-N-(4-(2,4-dioxo-3,4-dihydro-pyrimidin-1(2H)-yl)phenyl) acetamide]", "aggregation value related to the value from reference experiment (CS + HSP27 + BVDU), which was set at 1.0": 0.8}
